According to patent US10227295B2, “Selective histone deactylase 6 inhibitors” (H. LEE MOFFITT CANCER CENTER AND RESEARCH INSTITUTE, INC., priority 2013, dated 2019):

Experiments:
Assay type in all cases: cell-based
[1] = tested on: NRAS and BRAF mutant human melanoma cell lines; experiment: Human melanoma cell proliferation MTS assay; settings: 24 h, panel of human melanoma cell lines
Method: Cell proliferation was evaluated using various pan- and isotype selective HDACi in a broad panel of human melanoma cell lines. Briefly, cells were plated at 10×10^3/well in a 96 well flat bottom plate. The following day, media was changed to that containing different concentrations of HDACi or matched DMSO vehicle concentrations diluted in complete medium done in triplicate, all with a final concentration of less than 0.1% DMSO. Cells were incubated for 24 hours at 37° C. and 5% CO2. […] All values were then normalized and expressed as a percentage of medium control growth.

[2] = tested on: acetyl-tubulin and acetyl-histone3 in human melanoma cell lines; experiment: Western blot of HDAC substrate acetylation in human melanoma cells; settings: 24 hrs
Method: Error bars represent standard deviation from triplicates. This figure is representative of three independent experiments. (F,G,H) Cell cycle analysis of melanoma WM164, WM983A and WM793 human melanoma cell lines stained with propidium iodide. Data is representative of three experiments with similar results.
To confirm the selectivity of isotype specific HDACi, Western blot analysis was performed on the acetylation status of known HDAC substrates including histone H3 and H4, which are known Class I HDAC targets, and α-tubulin, a target for HDAC6. The doses required to impart the anti-proliferative effect coincided with that needed to increase acetylation of the respective HDAC substrates (FIG. 41F-41H). […] Conversely, HDAC6 selective inhibitors (HDAC6i) increase α-tubulin acetylation but not histone acetylation (FIG. 41F).

[3] = tested on: human melanoma cell lines; experiment: Cell cycle analysis by propidium iodide staining
Method: Cells were treated with indicated doses of HDAC inhibitors or DMSO control and then trypsinized, washed, and rendered into a single cell suspension in 1 mL of DPBS. 4 mL ice cold 200 proof ethyl alcohol was added dropwise while vortexing to fix cells. Samples were washed and resuspended in 75% ethanol solution overnight. Then, cells were washed in PBS+0.1% Triton X-100 and counted. Equal numbers of cells were then stained in a solution containing 10 μg/mL RNAseA+1 μg/mL propidium iodide for 2 hours at room temperature. Data was then acquired using a FACSCaliber with at least 10,000 events collected. Cell cycle analysis was completed using ModFit LT (Verity Software House, Topsham, Me.).

**Q.** With `Nc1ccccc1NC(=O)c1ccc(CNc2nccc(-c3cccnc3)n2)cc1` [MGCD0103] as the molecule, how does the “concentration range inhibiting proliferation (in words)” value [1] read?
**A.** The value was “low micromolar range”.

**Q.** And the “acetylation of α-tubulin and histone” value [2]?
**A.** Its value is “unchanged”.

**Q.** What about the cell cycle effects [3] of the same molecule?
**A.** Its cell cycle effects is “variable cell cycle effects”.
